Test results as given in patent US11427548B2 (Arvinas Operations, Inc., priority 2015, dated 2022).
Like-named read-outs stand apart in the source and are kept apart here.

Target: T1, Androgen Receptor (Homo sapiens, UniProt P10275)
T1 construct: endogenous in cells; host or cells: VCaP cells
T1 sequence (P10275 1-920): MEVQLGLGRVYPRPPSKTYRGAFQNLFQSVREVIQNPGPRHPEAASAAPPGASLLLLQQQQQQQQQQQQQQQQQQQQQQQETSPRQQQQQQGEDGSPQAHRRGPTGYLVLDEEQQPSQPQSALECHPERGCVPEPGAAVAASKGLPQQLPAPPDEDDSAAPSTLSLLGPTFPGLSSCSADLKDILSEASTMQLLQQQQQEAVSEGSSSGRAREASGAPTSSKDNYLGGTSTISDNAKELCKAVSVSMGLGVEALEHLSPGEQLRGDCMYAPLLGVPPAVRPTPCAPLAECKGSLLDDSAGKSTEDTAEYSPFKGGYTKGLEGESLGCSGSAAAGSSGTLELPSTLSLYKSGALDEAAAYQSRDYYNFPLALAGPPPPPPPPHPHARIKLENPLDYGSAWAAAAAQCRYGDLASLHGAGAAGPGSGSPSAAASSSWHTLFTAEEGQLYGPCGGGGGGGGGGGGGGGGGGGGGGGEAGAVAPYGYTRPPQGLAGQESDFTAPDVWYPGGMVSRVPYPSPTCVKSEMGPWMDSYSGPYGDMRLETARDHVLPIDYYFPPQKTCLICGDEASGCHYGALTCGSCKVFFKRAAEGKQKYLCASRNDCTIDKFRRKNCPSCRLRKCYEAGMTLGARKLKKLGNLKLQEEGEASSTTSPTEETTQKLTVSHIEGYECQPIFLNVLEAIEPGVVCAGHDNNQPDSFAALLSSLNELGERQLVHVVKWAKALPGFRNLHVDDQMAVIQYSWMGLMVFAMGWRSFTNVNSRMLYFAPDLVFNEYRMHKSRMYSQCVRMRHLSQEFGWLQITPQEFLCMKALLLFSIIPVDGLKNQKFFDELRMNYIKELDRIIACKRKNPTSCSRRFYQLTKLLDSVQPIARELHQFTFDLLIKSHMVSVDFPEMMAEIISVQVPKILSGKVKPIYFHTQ
Assay: Androgen Receptor ELISA assay (PathScan AR ELISA) in VCaP cells: AR degradation, Dmax and DC50
Assay type: cell-based
Method in brief: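 After 24 h exposure of VCaP cells (charcoal-stripped serum, 0.1 nM R1881 agonist, 0.1% DMSO) to seven half-log compound concentrations, residual AR in lysates was measured by PathScan ELISA (TMB absorbance, 450 nm). Cells were plated at 30,000/well and grown at least 3 days beforehand.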

[1] = VCaP cells; Table 36; read-out: VCaP DC50
[2] = VCaP, VCaP cells; Table 36; read-out: VCaP Dmax (%)
[3] = VCaP cells; Table 34; read-out: VCaP DC50
[4] = VCaP, VCaP cells; Table 34; read-out: VCaP Dmax (%)
[5] = VCaP cells; Table 35; read-out: VCaP DC50
[6] = VCaP, VCaP cells; Table 35; read-out: VCaP Dmax (%)
[7] = read-out: VCaP DC50; VCaP cells; Table 34

`Cc1ncoc1C12CC(CNC(=O)[C@@H]3C[C@@H](O)CN3C(=O)C(NC(=O)COCCCOCCCOc3ccc(N4C(=O)N(c5ccc(C#N)c(C(F)(F)F)c5)C(=O)C4(C)C)cc3)C(C)(C)C)(C1)C2` (stereo partly drawn) [Example 633, (2S,4)R-1-((S)-2-(2-(3-((5-(4-(3-(4-cyano-3-(trifluoromethyl)phenyl)-5,5-dimethyl-4-oxo-2-thioxoimidazolidin-1-yl)phenoxy)pentyl)oxy)propoxy)acetamido)-3,3-dimethylbutanoyl)-4-hydroxy-N-((3-(4-methyloxazol-5-yl)bicyclo[1,.1.1]pentan-1-yl)methyl)pyrrolidine-2-carboxamide] was tested, and the Dmax (VCaP, read-out: VCaP Dmax (%)) was less than 25% and the DC50 (read-out: VCaP DC50; VCaP cells; Table 36) was greater than 501 nM.

Work on `CC(C)C[C@H](OCCN1CCN(c2ccc(C(=O)N[C@H]3C(C)(C)[C@H](Oc4ccc(C#N)c(Cl)c4)C3(C)C)cn2)CC1)C(=O)N[C@H](C(=O)N1C[C@H](O)C[C@H]1C(=O)NCc1ccc(Cl)cc1)C(C)C` [Example 726, N-((1r,3r)-3-(3-chloro-4-cyanophenoxy)-2,2,4,4-tetramethylcyclobutyl)-6-(4-(2-(((S)-1-(((S)-1-((2S,4R)-2-((4-chlorobenzyl)carbamoyl)-4-hydroxypyrrolidin-1-yl)-3-methyl-1-oxobutan-2-yl)amino)-4-methyl-1-oxopentan-2-yl)oxy)ethyl)piperazin-1-yl)nicotinamide] yielded a DC50 [1] greater than 501 nM and a Dmax [2] of less than 25%.

With `Cc1ncsc1-c1ccc(CNC(=O)[C@@H]2C[C@@H](O)CN2C(=O)[C@@H](NC(=O)COCCC2CCN(c3ccc(C(=O)N[C@H]4C(C)(C)[C@H](Oc5ccc(C#N)c(Cl)c5)C4(C)C)cc3)CC2)C(C)(C)C)cc1` [Example 404] the DC50 [3] was less than 50 nM and the Dmax [4] was greater than 71%.

Compound `Cc1ncsc1-c1ccc([C@H](C)NC(=O)[C@@H]2CC(F)(F)CN2C(=O)[C@@H](NC(=O)COCCN2CCN(c3ccc(C(=O)N[C@H]4C(C)(C)[C@H](Oc5ccc(C#N)c(Cl)c5)C4(C)C)cn3)CC2)C(C)(C)C)cc1` [Example 725, N-((1r,3r)-3-(3-chloro-4-cyanophenoxy)-2,2,4,4-tetramethylcyclobutyl)-6-(4-(2-(2-(((S)-1-((S)-4,4-difluoro-2-(((S)-1-(4-(4-methylthiazol-5-yl)phenyl)ethyl)carbam-oyl)pyrrolidin-1-yl)-3,3-dimethyl-1-oxobutan-2-yl)amino)-2-oxoethoxy)ethyl)pipera-zin-1-yl)nicotinamide] has a DC50 [1] greater than 501 nM and a Dmax [2] of less than 25%.

`Cc1ncsc1-c1ccc([C@H](C)NC(=O)C2C[C@@H](O)CN2C(=O)[C@@H](NC(=O)COCCN2[C@H](C)CN(c3ccc(C(=O)N[C@H]4C(C)(C)[C@H](Oc5ccc(C#N)c(Cl)c5)C4(C)C)cn3)C[C@@H]2C)C(C)(C)C)cc1` (stereo partly drawn) [Example 786, N-((1r,3R)-3-(3-chloro-4-cyanophenoxy)-2,2,4,4-tetramethylcyclobutyl)-6-((3S,5R)-4-(2-(2-(((2S)-1-((4R)-4-hydroxy-2-(((S)-1-(4-(4-methylthiazol-5-yl)phenyl)ethyl)carbamoyl)pyrrolidin-1-yl)-3,3-dimethyl-1-oxobutan-2-yl)amino)-2-oxoethoxy)ethyl)-3,5-dimethylpiperazin-1-yl)nicotinamide] gave a DC50 [1] of less than 50 nM and a Dmax [2] greater than 71%.

For `Cc1ncsc1-c1ccc([C@H](C)NC(=O)[C@@H]2C[C@@H](O)CN2C(=O)[C@@H](NC(=O)COCCNc2ccc(-c3ccc(C(=O)N[C@H]4C(C)(C)[C@H](Oc5ccc(C#N)c(Cl)c5)C4(C)C)cc3)cn2)C(C)(C)C)cc1` [Example 445], the DC50 [5] was less than 50 nM and the Dmax [6] was greater than 71%.

Work on `CC(C)(C)[C@H](NC(=O)COCCCOCCCCOc1ccc(N2C(=S)N(c3ccc(C#N)c(Cl)c3)C(=O)C2(C)C)cc1)C(=O)N1C[C@H](O)C[C@H]1C(=O)NCc1ccc(-c2cnco2)cc1` [Example 337] yielded a Dmax (VCaP, read-out: VCaP Dmax (%)) greater than 71% and a DC50 [7] of less than 50 nM.

For `C[C@H](NC(=O)[C@@H]1C[C@@H](O)CN1C(=O)[C@@H](NC(=O)COCCCCOc1ccc(C(=O)N[C@H]2C(C)(C)[C@H](Oc3ccc(C#N)c(Cl)c3)C2(C)C)cc1)C(C)(C)C)c1ccc(-c2nncs2)cc1` [Example 570], the DC50 [5] was less than 50 nM and the Dmax [6] was greater than 71%.

`Cc1ncoc1-c1ccc(CNC(=O)[C@@H]2C[C@@H](O)CN2C(=O)[C@@H](NC(=O)COCCCCOc2ccc(Oc3ccc(N4C(=S)N(c5cnc(C#N)c(C(F)(F)F)c5)C(=O)C4(C)C)cc3)cc2)C(C)(C)C)cc1` [Example 383] was tested, and the DC50 [3] was less than 50 nM and the Dmax [4] was greater than 71%.

With `COc1cc(N2C(=O)C(C)(C)N(c3ccc(OCCOc4ccc(OCC(=O)N[C@H](C(=O)N5C[C@H](O)C[C@H]5C(=O)NCc5ccc(-c6scnc6C)cc5)C(C)(C)C)cc4)c(F)c3)C2=S)ccc1C#N` [Example 323] the DC50 [3] was less than 50 nM and the Dmax [4] was 51 to 70%.

Work on `C[C@H](NC(=O)[C@@H]1C[C@@H](O)CN1C(=O)[C@@H](NC(=O)COCCN1CCN(c2ccc(C(=O)N[C@H]3C(C)(C)[C@H](Oc4ccc(C#N)c(Cl)c4)C3(C)C)cn2)CC1)C(C)(C)C)c1ccc(-c2scnc2CO)cc1` [Example 673, N-((1r,3r)-3-(3-chloro-4-cyanophenoxy)-2,2,4,4-tetramethylcyclobutyl)-6-(4-(2-(2-(((S)-1-((2S,4R)-4-hydroxy-2-(((S)-1-(4-(4-(hydroxymethyl)thiazol-5-yl)phenyl)ethyl)carbam-oyl)pyrrolidin-1-yl)-3,3-dimethyl-1-oxobutan-2-yl)amino)-2-oxoethoxy)ethyl)pipera-zin-1-yl)nicotinamide] yielded a DC50 [1] of less than 50 nM and a Dmax [2] greater than 71%.

In the case of `CC(C)(C)[C@H](NC(=O)COCC#CC#CCOc1ccc(N2C(=S)N(c3ccc(C#N)c(C(F)(F)F)c3)C(=O)C2(C)C)cc1F)C(=O)N1C[C@H](O)C[C@H]1C(=O)NCc1ccc(-c2cnco2)cc1` [Example 61, (2S,4R)-1-[(2S)-2-(2-{[6-(4-{3-[4-cyano-3-(trifluoromethyl)phenyl]-5,5-dimethyl-4-oxo-2-sulfanylideneimidazolidin-1-yl}-2-fluorophenoxy)hexa-2,4-diyn-1-yl]oxy}acetamido)-3,3-dimethylbutanoyl]-4-hydroxy-N-{[4-(1,3-oxazol-5-yl)phenyl]methyl}pyrrolidine-2-carboxamide], the Dmax (VCaP, read-out: VCaP Dmax (%)) is reported as 51 to 70% and the DC50 (read-out: VCaP DC50; concentration that caused 50% Androgen Receptor degradation, VCaP cells) is reported as 51 to 500 nM.

In the case of `Cc1ncsc1-c1ccc(CNC(=O)[C@@H]2C[C@@H](O)CN2C(=O)[C@@H](NC(=O)COCCCCOc2ccc(-c3ccc(N4C(=S)N(c5ccc(C#N)c(C(F)(F)F)c5)C(=O)C4(C)C)cc3)cc2O)C(C)(C)C)cc1` [Example 408], the Dmax (VCaP, read-out: VCaP Dmax (%)) is reported as 51 to 70% and the DC50 [7] is reported as less than 50 nM.

For `CC(C)(C)[C@H](NC(=O)COCCCCOc1ccc(-c2ccc(N3C(=S)N(c4cnc(C#N)c(C(F)(F)F)c4)C(=O)C3(C)C)cc2)cc1)C(=O)N1C[C@H](O)C[C@H]1C(=O)NCc1ccc(C#N)cc1` [Example 571], the DC50 [5] was less than 50 nM and the Dmax [6] was greater than 71%.

Compound `Cc1ncsc1-c1ccc([C@@H](C)NC(=O)[C@@H]2C[C@@H](O)CN2C(=O)[C@@H](NC(=O)COCCCCCNc2ccc(C(=O)N[C@H]3C(C)(C)[C@H](Oc4ccc(C#N)c(Cl)c4)C3(C)C)cc2)C(C)(C)C)cc1` [Example 459] has a DC50 [5] greater than 501 nM and a Dmax [6] of 26 to 50%.
